According to patent US7163711B2, “Crystalline α-D-glucosyl α-D-galactoside, saccharide composition comprising the same, process for producing the same, and uses thereof” (Kabushiki Kaisha Hayashibara Seibutsu Kagaku Kenkyujo, priority 2002, dated 2007):
Values belong to the molecule of their own block, whether it stands above or below them.

How the values were obtained:
Format in all cases: physicochemical
[1] = Moisture absorption test on amorphous α-D-glucosyl α-D-galactoside; conditions: 25° C.; for Diffraction spectrum: powdery X-ray diffraction
Method: The crystalline powder of α-D-glucosyl α-D-galactoside obtained in Experiment 3 was examined for crystallinity by powdery X-ray diffraction analysis by using “GEIGERFLEX RAD-IIB™”, an X-ray diffraction analyzer using Cuk α ray commercialized by Rigaku Corporation, Tokyo, Japan, to obtain a spectrum as shown in FIG. 3 having peaks with diffraction angles (2θ) of at least 13.4°, 17.4°, 19.7°, and 22.3°. Crystallinity of the crystallized powder was calculated to be about 72.5% by using “Program for Crystallinity Analysis by Ruland method”, a computer program installed in the analyzer.
(§1) A half gram aliquots of the crystalline powder of α-D-glucosyl α-D-galactoside obtained in Experiment 3 were placed in aluminum weighing cans, which had been precisely weighed in advance, and each weighing can was weighed. The weight of each weighing can was subtracted from the total weight to calculate the starting weight of the crystalline powder of α-D-glucosyl α-D-galactoside. Each weighing can with the crystalline powder of α-D-glucosyl α-D-galactoside was placed in a glass desiccator which the relative humidity was controlled to a level of 33–99% in advance, and stored at 25° C. for one to seven days while keeping at the desired humidity. After the moisture absorption test, each weighing can had been precisely weighted and calculated for increasing weight to obtain a moisture absorption level (%). In the test, the crystalline powder was macroscopically observed.
The crystalline powder of α-D-glucosyl α-D-galactoside obtained in Experiment 3 was dissolved in water to obtain an aqueous solution with a concentration of 30% (w/w). The resultant aqueous solution was frozen and dried into an amorphous powder of α-D-glucosyl α-D-galactoside. Similar as in Experiment 10, the obtained amorphous powder was placed in aluminum weighing cans, and the cans were placed in a glass desiccator which the relative humidity was controlled to a level of 43–90% in advance, and stored at 25° C. for one to seven days while keeping at the desired humidity. After the moisture absorption test, moisture absorption level (%) was calculated similarly as in Experiment 10. In the test, the appearance of each powder was macroscopically observed. Samples after a storage for seven days were confirmed for their appearance by a powdery X-ray diffraction analysis in Experiment 4, and samples with crystals were examined for their crystallinity.

[2] = Saturated concentration for water; conditions: shaken 48 hours, d.s.b.
Method: A surplus volume of the crystalline powder of α-D-glucosyl α-D-galactoside obtained in Experiment 3 was added to 10 ml of distilled water, shaken at 25° C. or 40° C. for 48 hours, and filtrated to collect a crystalline powder, which is more than the solubility, by using a 0.45 μm filter, followed by collecting two filtrates (saturated solutions). Moisture content of the filtrates was measured by using a desiccating agent method described in “Standard Methods of Analysis in Food Safety Regulation, Chemistry” published by Japan Food Hygiene Association under the editorship of Ministry of Health, Labor and Welfare, 1991, to examine a saturated concentration of α-D-glucosyl α-D-galactoside.

[3] = Moisture absorption test on crystalline α-D-glucosyl α-D-galactoside; conditions: 25° C.
Source text: as §1

[4] = relative humidity 43%, storage for one day
[5] = relative humidity 43%, storage for seven days
[6] = relative humidity 53%, storage for one day
[7] = relative humidity 53%, storage for seven days
[8] = relative humidity 60%, storage for one day
[9] = relative humidity 60%, storage for seven days
[10] = relative humidity 90%, storage for one day
[11] = relative humidity 90%, storage for seven days
[12] = relative humidity 33%, storage one day
[13] = relative humidity 33%, storage seven days
[14] = relative humidity 33%, storage three days
[15] = relative humidity 33%, storage two days
[16] = relative humidity 43%, storage one day
[17] = relative humidity 43%, storage seven days
[18] = relative humidity 43%, storage three days
[19] = relative humidity 43%, storage two days
[20] = relative humidity 53%, storage one day
[21] = relative humidity 53%, storage seven days
[22] = relative humidity 53%, storage three days
[23] = relative humidity 53%, storage two days
[24] = relative humidity 60%, storage one day
[25] = relative humidity 60%, storage seven days
[26] = relative humidity 60%, storage three days
[27] = relative humidity 60%, storage two days
[28] = relative humidity 75%, storage one day
[29] = relative humidity 75%, storage seven days
[30] = relative humidity 75%, storage three days
[31] = relative humidity 75%, storage two days
[32] = relative humidity 84%, storage one day
[33] = relative humidity 84%, storage seven days
[34] = relative humidity 84%, storage three days
[35] = relative humidity 84%, storage two days
[36] = relative humidity 90%, storage one day
[37] = relative humidity 90%, storage seven days
[38] = relative humidity 90%, storage three days
[39] = relative humidity 90%, storage two days

A(%)* Moisture absorption level [1, 4]: 4.5% | Appearance (macroscopically observed) [1, 4]: Solidified | A(%)* Moisture absorption level [1, 5]: 6.3% | Appearance (macroscopically observed) [1, 5]: Solidified | Diffraction spectrum [1, 5]: Amorphous | A(%)* Moisture absorption level [1, 6]: 3.5% | Appearance (macroscopically observed) [1, 6]: Wet on the surface | A(%)* Moisture absorption level [1, 7]: 1.8% | Appearance (macroscopically observed) [1, 7]: Hardened | Crystallinity [1, 7]: 67% | Diffraction spectrum [1, 7]: Crystal monohydrate | A(%)* Moisture absorption level [1, 8]: 3.1% | Appearance (macroscopically observed) [1, 8]: Wet on the surface | A(%)* Moisture absorption level [1, 9]: 2.0% | Appearance (macroscopically observed) [1, 9]: Hardened | Crystallinity [1, 9]: 71% | Diffraction spectrum [1, 9]: Crystal monohydrate | A(%)* Moisture absorption level [1, 10]: 13.2% | Appearance (macroscopically observed) [1, 10]: Partial deliquescence | A(%)* Moisture absorption level [1, 11]: 36.2% | Appearance (macroscopically observed) [1, 11]: Deliquescence | moisture absorption (in words) ([1]; relative humidity of 43–90%, one to seven days): remarkably absorbed moisture
Compound: OC[C@H]1O[C@H](O[C@H]2O[C@H](CO)[C@@H](O)[C@H](O)[C@H]2O)[C@H](O)[C@@H](O)[C@H]1O [amorphous α-D-glucosyl α-D-galactoside, α-D-glucosyl α-D-galactoside]

saturated concentration in water ([2]; 25° C.): 68.9 % (w/w) | saturated concentration in water ([2]; 40° C.): 71.8 % (w/w) | A(%) Moisture absorption level [3, 12]: 0.0% | Appearance [3, 12]: Unchanged | A(%) Moisture absorption level [3, 13]: 0.0% | Appearance [3, 13]: Unchanged | A(%) Moisture absorption level [3, 14]: 0.0% | Appearance [3, 14]: Unchanged | A(%) Moisture absorption level [3, 15]: 0.0% | Appearance [3, 15]: Unchanged | A(%) Moisture absorption level [3, 16]: 0.0% | Appearance [3, 16]: Unchanged | A(%) Moisture absorption level [3, 17]: 0.0% | Appearance [3, 17]: Unchanged | A(%) Moisture absorption level [3, 18]: 0.0% | Appearance [3, 18]: Unchanged | A(%) Moisture absorption level [3, 19]: 0.0% | Appearance [3, 19]: Unchanged | A(%) Moisture absorption level [3, 20]: 0.0% | Appearance [3, 20]: Unchanged | A(%) Moisture absorption level [3, 21]: 0.1% | Appearance [3, 21]: Unchanged | A(%) Moisture absorption level [3, 22]: 0.0% | Appearance [3, 22]: Unchanged | A(%) Moisture absorption level [3, 23]: 0.0% | Appearance [3, 23]: Unchanged | A(%) Moisture absorption level [3, 24]: 0.1% | Appearance [3, 24]: Unchanged | A(%) Moisture absorption level [3, 25]: 0.2% | Appearance [3, 25]: Unchanged | A(%) Moisture absorption level [3, 26]: 0.1% | Appearance [3, 26]: Unchanged | A(%) Moisture absorption level [3, 27]: 0.1% | Appearance [3, 27]: Unchanged | A(%) Moisture absorption level [3, 28]: 0.1% | Appearance [3, 28]: Unchanged | A(%) Moisture absorption level [3, 29]: 0.2% | Appearance [3, 29]: Unchanged | A(%) Moisture absorption level [3, 30]: 0.1% | Appearance [3, 30]: Unchanged | A(%) Moisture absorption level [3, 31]: 0.1% | Appearance [3, 31]: Unchanged | A(%) Moisture absorption level [3, 32]: 3.2% | Appearance [3, 32]: Hardened | A(%) Moisture absorption level [3, 33]: 11.0% | Appearance [3, 33]: Hardened | A(%) Moisture absorption level [3, 34]: 6.1% | Appearance [3, 34]: Hardened | A(%) Moisture absorption level [3, 35]: 4.4% | Appearance [3, 35]: Hardened | A(%) Moisture absorption level [3, 36]: 6.9% | Appearance [3, 36]: p.d. | A(%) Moisture absorption level [3, 37]: 42.1% | Appearance [3, 37]: Deliquescence | A(%) Moisture absorption level [3, 38]: 19.2% | Appearance [3, 38]: Deliquescence | A(%) Moisture absorption level [3, 39]: 11.8% | Appearance [3, 39]: p.d. | moisture absorption (in words) ([3]; relative humidity of 75% or lower, one to seven days): did not absorb moisture
Compound: OC[C@H]1O[C@H](O[C@H]2O[C@H](CO)[C@@H](O)[C@H](O)[C@H]2O)[C@H](O)[C@@H](O)[C@H]1O [crystalline α-D-glucosyl α-D-galactoside, α-D-glucosyl α-D-galactoside]
